Data published in PubChem BioAssay (NCI).
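GI50 is the concentration that inhibits growth by half. TGI: concentration producing complete growth inhibition.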

Assays:
Experiment in all cases: NCI-60 cell line screen, 384-well format
[1] = test system: HT29 colon
[2] = test system: SF-268 CNS
[3] = test system: CCRF-CEM leukemia
[4] = test system: OVCAR-3 ovarian
[5] = test system: SK-MEL-5 melanoma
[6] = test system: SF-295 CNS
[7] = test system: NCI-H226 lung
[8] = test system: ACHN renal
[9] = test system: HOP-62 NSCLC
[10] = test system: MOLT-4 leukemia
[11] = test system: OVCAR-4 ovarian
[12] = test system: MDA-MB-468 breast
[13] = test system: U251 glioblastoma
[14] = test system: K-562 leukemia
[15] = test system: COLO 205 colon
[16] = test system: UACC-62 melanoma
[17] = test system: MCF7 breast
[18] = test system: NCI-H522 lung
[19] = test system: LOX IMVI melanoma
[20] = test system: SW-620 colon
[21] = test system: SR leukemia
[22] = test system: MDA-MB-231 breast
[23] = test system: HS 578T breast
[24] = test system: HOP-92 NSCLC
[25] = test system: SF-539 CNS
[26] = test system: IGROV1 ovarian
[27] = test system: TK-10 renal
[28] = test system: A549 NSCLC
[29] = test system: SK-OV-3 ovarian
[30] = test system: SK-MEL-28 melanoma
[31] = test system: M14 melanoma
[32] = test system: HL-60(TB) leukemia
[33] = test system: BT-549 breast
[34] = test system: CAKI-1 renal
[35] = test system: KM12 colon
[36] = test system: SNB-19 CNS
[37] = test system: PC-3 prostate
[38] = test system: DU-145 prostate
[39] = test system: T-47D breast
[40] = test system: HCT-116 colon
[41] = test system: HCT-15 colon
[42] = test system: UACC-257 melanoma
[43] = test system: OVCAR-8 ovarian
[44] = test system: NCI-H460 NSCLC
[45] = test system: SN12C renal
[46] = test system: SK-MEL-2 melanoma
[47] = test system: RPMI-8226 leukemia

COC(=O)c1ccc([C@H]2c3[nH]c4ccccc4c3C[C@H](C(=O)OC)N2C(=O)CCl)cc1
GI50 [1]: 227 nM | TGI [1]: 707 nM | GI50 [2]: 19.5 nM | TGI [2]: 42.3 nM | GI50 [3]: < 10 nM | TGI [3]: 15 nM | GI50 [4]: 14.3 nM | TGI [4]: 28.8 nM | GI50 [5]: 479 nM | TGI [5]: 1760 nM | GI50 [6]: 103 nM | TGI [6]: 221 nM | GI50 [7]: 75.1 nM | TGI [7]: 449 nM | GI50 [8]: < 10 nM | TGI [8]: < 10 nM | GI50 [9]: 10.7 nM | TGI [9]: 35.5 nM | GI50 [10]: 15.5 nM | TGI [10]: 29.4 nM | GI50 [11]: < 10 nM | TGI [11]: < 10 nM | GI50 [12]: < 10 nM | TGI [12]: 19.5 nM | GI50 [13]: 119 nM | TGI [13]: 399 nM | GI50 [14]: 46.2 nM | TGI [14]: 382 nM | GI50 [15]: 238 nM | TGI [15]: 1150 nM | GI50 [16]: 19.3 nM | TGI [16]: 41.6 nM | GI50 [17]: 553 nM | TGI [17]: 1830 nM | GI50 [18]: < 10 nM | TGI [18]: < 10 nM | GI50 [19]: < 10 nM | TGI [19]: < 10 nM | GI50 [20]: 199 nM | TGI [20]: 504 nM | GI50 [21]: < 10 nM | TGI [21]: 20.5 nM | GI50 [22]: 14.4 nM | TGI [22]: 28.6 nM | GI50 [23]: 131 nM | TGI [23]: 311 nM | GI50 [24]: < 10 nM | TGI [24]: < 10 nM | GI50 [25]: 33.9 nM | TGI [25]: 114 nM | GI50 [26]: 14.2 nM | TGI [26]: 27.5 nM | GI50 [27]: 15.8 nM | TGI [27]: 33.6 nM | GI50 [28]: 119 nM | TGI [28]: 339 nM | GI50 [29]: 158 nM | TGI [29]: 299 nM | GI50 [30]: 1450 nM | TGI [30]: 2830 nM | GI50 [31]: 51.2 nM | TGI [31]: 216 nM | GI50 [32]: < 10 nM | TGI [32]: 10.2 nM | GI50 [33]: 120 nM | TGI [33]: 246 nM | GI50 [34]: < 10 nM | TGI [34]: < 10 nM | GI50 [35]: 18.3 nM | TGI [35]: 37.8 nM | GI50 [36]: 1300 nM | TGI [36]: 2590 nM | GI50 [37]: 34.4 nM | TGI [37]: 140 nM | GI50 [38]: 336 nM | TGI [38]: 1640 nM | GI50 [39]: 58.2 nM | TGI [39]: 764 nM | GI50 [40]: 366 nM | TGI [40]: 1450 nM | GI50 [41]: 157 nM | TGI [41]: 913 nM | GI50 [42]: 86.8 nM | TGI [42]: 336 nM | GI50 [43]: 66.5 nM | TGI [43]: 248 nM | GI50 [44]: 574 nM | TGI [44]: 1940 nM | GI50 [45]: 466 nM | TGI [45]: 1830 nM | GI50 [46]: 51.7 nM | TGI [46]: 185 nM | GI50 [47]: 14.2 nM | TGI [47]: 28.4 nM
